Assay results published in ChEMBL document CHEMBL4706640, “Structure-Based Drug Design and Synthesis of PI3Kα-Selective Inhibitor (PF-06843195)” (J Med Chem, 2021).
Values after ≈ are worked out from the molar mass of the structure shown.

Legend:
[1] = target: Phosphatidylinositol 4,5-bisphosphate 3-kinase catalytic subunit beta isoform (Homo sapiens, UniProt P42338); assay: Inhibition of recombinant human N-terminal Myr signal and C-terminal Flag-tagged PI3K p110beta expressed in rat Rat1 cells; type: cell-based
Phosphatidylinositol 4,5-bisphosphate 3-kinase catalytic subunit beta isoform, sequence (P42338 whole entry, canonical isoform): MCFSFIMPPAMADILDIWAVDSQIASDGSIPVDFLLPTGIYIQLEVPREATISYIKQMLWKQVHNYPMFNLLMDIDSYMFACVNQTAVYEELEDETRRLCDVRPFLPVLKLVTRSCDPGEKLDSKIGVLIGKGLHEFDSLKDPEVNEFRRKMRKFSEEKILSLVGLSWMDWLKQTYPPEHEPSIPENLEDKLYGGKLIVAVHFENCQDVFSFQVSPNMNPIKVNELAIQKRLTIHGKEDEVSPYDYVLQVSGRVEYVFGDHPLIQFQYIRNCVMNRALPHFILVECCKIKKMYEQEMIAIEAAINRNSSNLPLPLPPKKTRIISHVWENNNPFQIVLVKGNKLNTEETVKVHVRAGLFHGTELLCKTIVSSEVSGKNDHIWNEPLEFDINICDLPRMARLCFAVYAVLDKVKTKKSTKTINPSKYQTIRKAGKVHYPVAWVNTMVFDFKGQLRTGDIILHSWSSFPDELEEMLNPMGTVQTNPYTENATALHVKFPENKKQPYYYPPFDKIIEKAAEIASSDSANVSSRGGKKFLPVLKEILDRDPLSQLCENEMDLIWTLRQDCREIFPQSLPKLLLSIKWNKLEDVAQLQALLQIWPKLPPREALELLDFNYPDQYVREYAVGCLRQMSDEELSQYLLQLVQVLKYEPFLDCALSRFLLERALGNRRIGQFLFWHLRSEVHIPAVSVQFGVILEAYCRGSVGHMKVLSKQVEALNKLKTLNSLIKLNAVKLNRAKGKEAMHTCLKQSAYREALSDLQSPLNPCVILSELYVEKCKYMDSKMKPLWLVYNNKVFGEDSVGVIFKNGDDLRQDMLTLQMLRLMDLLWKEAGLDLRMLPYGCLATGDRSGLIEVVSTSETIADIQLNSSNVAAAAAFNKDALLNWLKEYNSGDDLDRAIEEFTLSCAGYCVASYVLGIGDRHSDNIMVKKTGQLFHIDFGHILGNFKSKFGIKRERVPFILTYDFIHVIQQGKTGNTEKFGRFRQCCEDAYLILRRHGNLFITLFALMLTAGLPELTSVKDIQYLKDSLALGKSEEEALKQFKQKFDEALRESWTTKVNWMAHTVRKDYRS

[2] = target: PI3K p110 beta/p85 alpha (Homo sapiens, UniProt P42338); assay: Inhibition of recombinant human PI3K p110beta/p85alpha using phosphatidylinositol 4,5-bisphosphate as substrate preincubated for 15 mins followed by addition of ATP and measured after 30 mins by fluorescence polarisation assay; type: protein-complex assay
PI3K p110 beta/p85 alpha, sequence (P27986 whole entry): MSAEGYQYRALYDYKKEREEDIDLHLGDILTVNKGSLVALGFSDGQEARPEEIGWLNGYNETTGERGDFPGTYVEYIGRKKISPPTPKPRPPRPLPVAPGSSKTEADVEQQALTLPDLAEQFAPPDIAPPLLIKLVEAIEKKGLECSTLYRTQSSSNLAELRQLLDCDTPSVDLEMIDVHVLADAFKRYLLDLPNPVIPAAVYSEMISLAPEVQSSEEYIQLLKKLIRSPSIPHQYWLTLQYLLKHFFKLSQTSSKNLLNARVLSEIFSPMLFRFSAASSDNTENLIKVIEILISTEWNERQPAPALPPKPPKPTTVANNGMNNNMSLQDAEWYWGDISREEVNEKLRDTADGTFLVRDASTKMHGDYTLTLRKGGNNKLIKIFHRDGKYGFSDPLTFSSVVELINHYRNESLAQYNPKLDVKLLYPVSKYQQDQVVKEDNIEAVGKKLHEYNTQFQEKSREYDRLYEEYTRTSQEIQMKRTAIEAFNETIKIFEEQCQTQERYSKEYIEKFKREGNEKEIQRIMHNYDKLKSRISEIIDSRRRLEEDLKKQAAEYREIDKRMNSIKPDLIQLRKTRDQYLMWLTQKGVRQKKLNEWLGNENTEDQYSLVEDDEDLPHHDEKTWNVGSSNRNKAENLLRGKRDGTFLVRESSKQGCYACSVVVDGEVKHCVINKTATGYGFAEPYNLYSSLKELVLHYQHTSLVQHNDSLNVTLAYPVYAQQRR
PI3K p110 beta/p85 alpha, sequence (P42338 whole entry): as the sequence (P42338 whole entry, canonical isoform) above

[3] = target: PI3-kinase p110-delta/p85-alpha (Homo sapiens, UniProt O00329); assay: Inhibition of recombinant human PI3K p110delta/p85alpha using phosphatidylinositol 4,5-bisphosphate as substrate preincubated for 15 mins followed by addition of ATP and measured after 30 mins by fluorescence polarisation assay; type: protein-complex assay
PI3-kinase p110-delta/p85-alpha, sequence (P27986 whole entry, one chain of several): as the sequence (P27986 whole entry) above

[4] = Apparent intrinsic clearance in human liver microsomes; type: ADME, Microsome; conditions: read-out: CLH(app)
[5] = Distribution coefficient, logD of compound at pH 7.4; type: physicochemical; conditions: octanol/water
[6] = Kinetic solubility of compound; type: physicochemical; conditions: read-out: Kinetic_solubility
[7] = target: PI3-kinase p110-alpha/p85-alpha (Homo sapiens, UniProt P42336); assay: Inhibition of recombinant human full-length PI3K p110alpha/p85alpha (322 to 600) expressed in baculovirus infected Sf21 cells using phosphatidylinositol 4,5-bisphosphate as substrate preincubated for 15 mins followed by addition of ATP and measured after 30 mins by fluorescence polarisation assay
PI3-kinase p110-alpha/p85-alpha, sequence (P27986 whole entry): as above
PI3-kinase p110-alpha/p85-alpha, sequence (P42336 whole entry): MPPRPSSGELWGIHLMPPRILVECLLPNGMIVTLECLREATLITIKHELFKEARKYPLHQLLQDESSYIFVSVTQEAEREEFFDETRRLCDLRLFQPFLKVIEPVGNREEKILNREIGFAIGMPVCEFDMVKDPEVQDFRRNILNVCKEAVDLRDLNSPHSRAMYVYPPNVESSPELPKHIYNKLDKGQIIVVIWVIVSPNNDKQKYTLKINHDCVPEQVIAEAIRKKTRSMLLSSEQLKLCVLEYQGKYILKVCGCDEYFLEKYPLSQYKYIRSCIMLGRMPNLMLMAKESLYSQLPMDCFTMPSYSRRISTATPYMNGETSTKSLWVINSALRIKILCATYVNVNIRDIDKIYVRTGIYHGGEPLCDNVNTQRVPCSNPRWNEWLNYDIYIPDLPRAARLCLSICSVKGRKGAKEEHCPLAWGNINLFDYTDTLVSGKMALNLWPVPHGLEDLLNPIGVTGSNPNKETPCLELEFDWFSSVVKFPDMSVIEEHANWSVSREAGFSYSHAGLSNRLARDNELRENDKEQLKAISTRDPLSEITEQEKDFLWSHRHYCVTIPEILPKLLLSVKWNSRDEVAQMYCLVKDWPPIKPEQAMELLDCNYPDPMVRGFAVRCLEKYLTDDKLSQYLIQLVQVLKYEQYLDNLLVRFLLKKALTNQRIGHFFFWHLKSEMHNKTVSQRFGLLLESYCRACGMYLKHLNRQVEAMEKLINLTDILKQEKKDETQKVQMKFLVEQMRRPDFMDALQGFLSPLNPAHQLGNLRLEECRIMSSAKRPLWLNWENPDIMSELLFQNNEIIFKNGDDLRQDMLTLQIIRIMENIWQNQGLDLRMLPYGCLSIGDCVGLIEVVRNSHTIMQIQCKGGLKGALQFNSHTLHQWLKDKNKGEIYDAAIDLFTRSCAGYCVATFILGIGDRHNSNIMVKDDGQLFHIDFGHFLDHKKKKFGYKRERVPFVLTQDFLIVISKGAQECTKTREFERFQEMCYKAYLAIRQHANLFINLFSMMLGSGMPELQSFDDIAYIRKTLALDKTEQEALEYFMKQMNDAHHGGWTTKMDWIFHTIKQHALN

[8] = species on record: Homo sapiens; assay: Selectivity index, ratio of Ki for recombinant human PI3K p110delta/p85alpha to Ki for recombinant human full-length PI3K p110alpha/p85alpha (322 to 600) using phosphatidylinositol 4,5-bisphosphate as substrate
[9] = target: T1, Phosphatidylinositol 4,5-bisphosphate 3-kinase catalytic subunit delta isoform (Homo sapiens, UniProt O00329); assay: Inhibition of recombinant human N-terminal Myr signal and C-terminal Flag-tagged PI3K p110delta expressed in rat Rat1 cells; type: cell-based
T1 sequence (O00329 whole entry): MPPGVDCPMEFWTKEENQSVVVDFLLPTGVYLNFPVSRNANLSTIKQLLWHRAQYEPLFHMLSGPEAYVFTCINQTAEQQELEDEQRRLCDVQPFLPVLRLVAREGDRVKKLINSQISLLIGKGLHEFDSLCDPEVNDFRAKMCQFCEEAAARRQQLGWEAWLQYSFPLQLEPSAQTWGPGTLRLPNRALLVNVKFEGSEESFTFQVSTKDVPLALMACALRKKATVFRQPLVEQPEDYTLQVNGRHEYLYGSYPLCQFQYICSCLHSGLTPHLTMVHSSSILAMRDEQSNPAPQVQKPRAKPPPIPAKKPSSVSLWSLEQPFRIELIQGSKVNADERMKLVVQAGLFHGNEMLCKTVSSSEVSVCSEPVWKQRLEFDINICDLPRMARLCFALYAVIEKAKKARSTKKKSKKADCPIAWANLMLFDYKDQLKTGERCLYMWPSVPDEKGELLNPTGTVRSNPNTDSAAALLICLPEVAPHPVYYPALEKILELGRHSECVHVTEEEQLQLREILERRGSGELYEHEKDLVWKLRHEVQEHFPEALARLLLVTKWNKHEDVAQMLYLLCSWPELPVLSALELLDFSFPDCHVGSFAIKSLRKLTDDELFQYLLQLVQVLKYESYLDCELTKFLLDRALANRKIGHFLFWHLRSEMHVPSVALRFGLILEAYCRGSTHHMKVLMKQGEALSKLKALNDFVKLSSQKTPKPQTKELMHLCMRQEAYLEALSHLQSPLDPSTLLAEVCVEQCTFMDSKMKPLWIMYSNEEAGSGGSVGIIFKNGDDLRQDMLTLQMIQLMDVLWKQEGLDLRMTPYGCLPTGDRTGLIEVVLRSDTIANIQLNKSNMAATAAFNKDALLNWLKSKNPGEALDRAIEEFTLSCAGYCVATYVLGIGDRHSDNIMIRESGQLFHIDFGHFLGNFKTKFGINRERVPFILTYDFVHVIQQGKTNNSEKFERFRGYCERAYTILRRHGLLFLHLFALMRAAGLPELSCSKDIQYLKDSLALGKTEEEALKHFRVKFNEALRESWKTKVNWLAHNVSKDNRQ

[10] = target: Phosphatidylinositol 4,5-bisphosphate 3-kinase catalytic subunit alpha isoform (Homo sapiens, UniProt P42336); assay: Inhibition of recombinant human N-terminal Myr signal and C-terminal Flag-tagged PI3K p110alpha expressed in rat Rat1 cells; type: cell-based
Phosphatidylinositol 4,5-bisphosphate 3-kinase catalytic subunit alpha isoform, sequence (P42336 whole entry, canonical isoform): as the sequence (P42336 whole entry) above

[11] = Passive permeability of compound in RRCK cells; type: ADME, cell-based, Canis lupus familiaris, MDCKII-LE; conditions: dog, MDCK; read-out: permeability
[12] = system: Rat1; assay: Selectivity index, ratio of IC50 for recombinant human N-terminal Myr signal and C-terminal Flag-tagged PI3K p110delta to IC50 for recombinant human N-terminal Myr signal and C-terminal Flag-tagged PI3K p110alpha expressed in rat Rat1 cells; type: cell-based
[13] = species on record: Homo sapiens; assay: Selectivity index, ratio of Ki for recombinant human PI3K p110beta/p85alpha to Ki for recombinant human full-length PI3K p110alpha/p85alpha (322 to 600) using phosphatidylinositol 4,5-bisphosphate as substrate
[14] = system: Rat1; assay: Selectivity index, ratio of IC50 for recombinant human N-terminal Myr signal and C-terminal Flag-tagged PI3K p110beta to IC50 for recombinant human N-terminal Myr signal and C-terminal Flag-tagged PI3K p110alpha expressed in rat Rat1 cells; type: cell-based
[15] = system: MCF7; assay: Antiproliferation activity against human MCF7 cells assessed as reduction in cell viability incubated for 7 days by Cell-titer Glo reagent based assay; type: functional; conditions: MCF7, 168 h
[16] = Inhibition of PI3K p110alpha […] mutant in human MCF7 cells assessed as reduction in phosphorylation of Akt at T308 residue incubated for 2 hrs by ELISA; type: cell-based; conditions: MCF7, 2 h
[17] = Inhibition of PI3K p110alpha H1047R mutant in human T47D cells assessed as reduction in phosphorylation of Akt at T308 residue incubated for 2 hrs by ELISA; type: cell-based
[18] = target: Serine/threonine-protein kinase mTOR (Homo sapiens, UniProt P42345); assay: Inhibition of mTOR in TSC1 null human MCF7 cells assessed as decrease in p70S6K phosphorylation at Thr389 residue incubated for 2 hrs by ELISA; type: cell-based
[19] = system: T47D; assay: Antiproliferation activity against human T47D cells assessed as reduction in cell viability incubated for 7 days by Cell-titer Glo reagent based assay; type: functional; conditions: 168 h

Row | SMILES | IC50 [1] [nM] | Ki [2] [nM] | Ki [3] [nM] | microsomal CLint [4] [µL/min/mg] | logD [5] | solubility kinetic [6] [µM] | Ki [7] [nM] | Ratio Ki [8] | IC50 [9] [nM] | IC50 [10] [nM] | Papp [11] [×10⁻⁶ cm/s] | Ratio IC50 [12] | Ratio Ki [13] | Ratio IC50 [14] | IC50 [15] [nM] | IC50 [16] [nM] | IC50 [17] [nM] | IC50 [18] [nM] | IC50 [19] [nM]
1 | CC(C)(C)OC(=O)N1CC[C@](C)(N2CCc3c(-c4cnc(N)nc4)nc(N4CCOCC4)nc32)C1 | 640 | 25 | 0.46 | 160 | 3.7 | 97 (≈ 46.8 µg/mL) | < 0.018 | > 26 | 92 | 6.8 | 21 | 14 | > 1390 | 94 |  |  |  |  | 
2 | Cc1nc(NC(=O)N2CCC[C@H]2C(N)=O)sc1-c1ccnc(C(C)(C)C(F)(F)F)c1 [ALPELISIB] |  |  |  |  |  |  |  |  |  |  |  |  |  |  | 530 | 39 | 30 | 3000 | 420
